{"source": "patent US12016355B2", "about": "“Stevia composition” (PURECIRCLE SDN BHD, priority 2011, dated 2024)", "key": {"[1]": {"assay": "Sweetness factor (SF) determination by trained panel in water", "settings": "in water, 5% SE", "experimental": "The sweetness factors for different sweetener from all major groups were measured by tasting several concentrations of each sweetener in water by trained panel. From the sensory test at a, the concentration (%) that corresponds to the 5% sucrose equivalent (SE) sweetness were estimated and listed in Table 2. The sweetness equivalent (SE) of high intensity sweeteners (HIS) varies according to the target sugar equivalent sweetness levels, that are tested as shown in Table 3."}, "[2]": {"settings": "as usually found, literature; cited from earlier work"}, "[3]": {"assay": "Sugar equivalent sweetness of sweetener/Reb B combinations in plain water, trained panel", "settings": "plain water", "experimental": "In one embodiment, Reb B was combined (at 50, 150 and 300 ppm) with several sweeteners listed in Table 2 to make solutions in plain water. Some of the sweeteners were tested at two different concentrations to obtain around 2% sugar equivalent sweetness without any Reb B. A trained panel conducted sensory tests to determine the effect of the addition of different amounts of Reb B to each sweetener on overall sweetness quality and intensity as shown in Table 4."}, "[4]": {"assay_type": "physicochemical", "experimental": "Hereinafter, unless specified otherwise the solubility of material is determined in reverse osmosis (RO) water at room temperature. Where the solubility is expressed as “%” it to be understood as number of grams of material soluble in 100 grams of solvent.\nThe temperature was increased at 1° C. per minute to 121° C. The mixture was maintained at 121° C. for 1 hour and then the temperature was decreased to 80° C., at 1° C. per minute, and the obtained solution was spray dried using YC-015 laboratory spray drier (Shanghai Pilotech Instrument & Equipment Co. Ltd., China) operating at 175° C. inlet and 100° C. outlet temperature. Solution was maintained at 80° C. to prevent premature crystallization.\nSolubility were evaluated for Reb A, Reb B, mechanical blends of Reb A and Reb B powders of different ratios, and mixtures of Reb A and Reb B prepared according to process described in EXAMPLE 1."}, "[5]": {"settings": "room temperature; reported values; cited from earlier work"}}, "note": "Read-outs that look alike come from different tables or passages of the source.", "data": [{"compound": "OC[C@H]1O[C@@](CO)(O[C@H]2O[C@H](CO)[C@@H](O)[C@H](O)[C@H]2O)[C@@H](O)[C@@H]1O", "note": "[Sugar]", "values": [{"measurement": "Calculated SF (sweetness factor)", "setting": "[1]", "value": 1}, {"measurement": "Usage Level, % (concentration corresponding to 5% sucrose equivalent sweetness)", "setting": "[1]", "value": 5, "unit": "%"}]}, {"compound": "C=C1C[C@@]23CC[C@H]4[C@@](C)(CCC[C@@]4(C)C(=O)O[C@@H]4O[C@H](CO)[C@@H](O)[C@H](O)[C@H]4O)[C@@H]2CC[C@]1(O[C@@H]1O[C@H](CO)[C@@H](O)[C@H](O[C@@H]2O[C@H](CO)[C@@H](O)[C@H](O)[C@H]2O)[C@H]1O[C@@H]1O[C@@H](C)[C@H](O)[C@@H](O)[C@H]1O)C3", "note": "[Rebaudioside C]", "values": [{"measurement": "times sweeter than sucrose", "setting": "[2]", "value": "40-60 times"}]}, {"compound": "OC[C@H]1O[C@H](O[C@]2(CCl)O[C@H](CCl)[C@@H](O)[C@@H]2O)[C@H](O)[C@@H](O)[C@H]1Cl", "note": "[Sucralose]", "values": [{"measurement": "Sugar equivalent sweetness (SE) of Sweetener/Reb B combination", "setting": "[3]; 0 ppm Reb B, listed as Sucralose 83 ppm", "value": 5, "unit": "%"}, {"measurement": "Sugar equivalent sweetness (SE) of Sweetener/Reb B combination", "setting": "[3]; 0 ppm Reb B, listed as Sucralose (40 ppm)", "value": "2-2.5%"}, {"measurement": "Sugar equivalent sweetness (SE) of Sweetener/Reb B combination", "setting": "[3]; 50 ppm Reb B, listed as Sucralose 83 ppm", "value": 7, "unit": "%"}, {"measurement": "Sugar equivalent sweetness (SE) of Sweetener/Reb B combination", "setting": "[3]; 50 ppm Reb B, listed as Sucralose (40 ppm)", "value": 5, "unit": "%"}, {"measurement": "Sugar equivalent sweetness (SE) of Sweetener/Reb B combination", "setting": "[3]; 150 ppm Reb B, listed as Sucralose 83 ppm", "value": 11, "unit": "%"}, {"measurement": "Sugar equivalent sweetness (SE) of Sweetener/Reb B combination", "setting": "[3]; 150 ppm Reb B, listed as Sucralose (40 ppm)", "value": "7.5-8%"}, {"measurement": "Sugar equivalent sweetness (SE) of Sweetener/Reb B combination", "setting": "[3]; 300 ppm Reb B, listed as Sucralose 83 ppm", "value": 14, "unit": "%"}, {"measurement": "Sugar equivalent sweetness (SE) of Sweetener/Reb B combination", "setting": "[3]; 300 ppm Reb B, listed as Sucralose (40 ppm)", "value": 11, "unit": "%"}, {"measurement": "Calculated SF (sweetness factor)", "setting": "[1]", "value": 602}, {"measurement": "Usage Level, % (concentration corresponding to 5% sucrose equivalent sweetness)", "setting": "[1]", "value": 0.0083, "unit": "%"}]}, {"compound": "OC[C@@H](O)[C@@H](O[C@H]1O[C@H](CO)[C@@H](O)[C@H](O)[C@H]1O)[C@H](O)[C@@H](O)CO", "note": "[Maltitol]", "values": [{"measurement": "Sugar equivalent sweetness (SE) of Sweetener/Reb B combination", "setting": "[3]; 0 ppm Reb B", "value": 5, "unit": "%"}, {"measurement": "Sugar equivalent sweetness (SE) of Sweetener/Reb B combination", "setting": "[3]; 50 ppm Reb B", "value": 6, "unit": "%"}, {"measurement": "Sugar equivalent sweetness (SE) of Sweetener/Reb B combination", "setting": "[3]; 150 ppm Reb B", "value": 9, "unit": "%"}, {"measurement": "Sugar equivalent sweetness (SE) of Sweetener/Reb B combination", "setting": "[3]; 300 ppm Reb B", "value": 12, "unit": "%"}, {"measurement": "Calculated SF (sweetness factor)", "setting": "[1]", "value": 0.77}, {"measurement": "Usage Level, % (concentration corresponding to 5% sucrose equivalent sweetness)", "setting": "[1]", "value": 6.44, "unit": "%"}]}, {"compound": "C=C1C[C@@]23CC[C@H]4[C@@](C)(CCC[C@@]4(C)C(=O)O[C@@H]4O[C@H](CO)[C@@H](O)[C@H](O)[C@H]4O)[C@@H]2CC[C@]1(O[C@@H]1O[C@H](CO)[C@@H](O)[C@H](O)[C@H]1O[C@@H]1O[C@@H](C)[C@H](O)[C@@H](O)[C@H]1O)C3", "note": "[Dulcoside A]", "values": [{"measurement": "times sweeter than sucrose", "setting": "[2]", "value": 30, "unit": "times"}]}, {"compound": "OC[C@@H](O)[C@@H](O)CO", "note": "[Erythritol]", "values": [{"measurement": "Sugar equivalent sweetness (SE) of Sweetener/Reb B combination", "setting": "[3]; 0 ppm Reb B, listed as Erythritol (3.5%)", "value": "1-1.5%"}, {"measurement": "Sugar equivalent sweetness (SE) of Sweetener/Reb B combination", "setting": "[3]; 0 ppm Reb B, listed as Erythritol (5.0%)", "value": 3, "unit": "%"}, {"measurement": "Sugar equivalent sweetness (SE) of Sweetener/Reb B combination", "setting": "[3]; 50 ppm Reb B, listed as Erythritol (3.5%)", "value": 3, "unit": "%"}, {"measurement": "Sugar equivalent sweetness (SE) of Sweetener/Reb B combination", "setting": "[3]; 50 ppm Reb B, listed as Erythritol (5.0%)", "value": 4, "unit": "%"}, {"measurement": "Sugar equivalent sweetness (SE) of Sweetener/Reb B combination", "setting": "[3]; 150 ppm Reb B, listed as Erythritol (3.5%)", "value": "5.5-6%"}, {"measurement": "Sugar equivalent sweetness (SE) of Sweetener/Reb B combination", "setting": "[3]; 150 ppm Reb B, listed as Erythritol (5.0%)", "value": 8, "unit": "%"}, {"measurement": "Sugar equivalent sweetness (SE) of Sweetener/Reb B combination", "setting": "[3]; 300 ppm Reb B, listed as Erythritol (3.5%)", "value": 9, "unit": "%"}, {"measurement": "Sugar equivalent sweetness (SE) of Sweetener/Reb B combination", "setting": "[3]; 300 ppm Reb B, listed as Erythritol (5.0%)", "value": 9.5, "unit": "%"}, {"measurement": "Calculated SF (sweetness factor)", "setting": "[1]", "value": 0.67}, {"measurement": "Usage Level, % (concentration corresponding to 5% sucrose equivalent sweetness)", "setting": "[1]", "value": 7.49, "unit": "%"}]}, {"compound": "Rebaudioside D [Reb D]", "values": [{"measurement": "water solubility", "setting": "[4]", "value": 0.03, "unit": "%"}, {"measurement": "Calculated SF (sweetness factor)", "setting": "[1]", "value": 291}, {"measurement": "Usage Level, % (concentration corresponding to 5% sucrose equivalent sweetness)", "setting": "[1]", "value": 0.0172, "unit": "%"}, {"measurement": "water solubility", "setting": "[5]", "value": "0.01-0.05%"}]}, {"compound": "C[C@H](CC[C@@H](O[C@@H]1O[C@H](CO[C@@H]2O[C@H](CO)[C@@H](O)[C@H](O)[C@H]2O)[C@@H](O)[C@H](O)[C@H]1O[C@@H]1O[C@H](CO)[C@@H](O)[C@H](O)[C@H]1O)C(C)(C)O)[C@H]1CC[C@@]2(C)[C@@H]3CC=C4[C@@H](CC[C@H](O[C@@H]5O[C@H](CO[C@@H]6O[C@H](CO)[C@@H](O)[C@H](O)[C@H]6O)[C@@H](O)[C@H](O)[C@H]5O)C4(C)C)[C@]3(C)[C@H](O)C[C@]12C", "note": "[Mogroside V (70%), Mogroside V]", "values": [{"measurement": "Sugar equivalent sweetness (SE) of Sweetener/Reb B combination", "setting": "[3]; 0 ppm Reb B, listed as Mogroside V (100 ppm)", "value": 2.5, "unit": "%"}, {"measurement": "Sugar equivalent sweetness (SE) of Sweetener/Reb B combination", "setting": "[3]; 0 ppm Reb B, listed as Mogroside V (212 ppm)", "value": "5.5-6%"}, {"measurement": "Sugar equivalent sweetness (SE) of Sweetener/Reb B combination", "setting": "[3]; 50 ppm Reb B, listed as Mogroside V (100 ppm)", "value": 4, "unit": "%"}, {"measurement": "Sugar equivalent sweetness (SE) of Sweetener/Reb B combination", "setting": "[3]; 50 ppm Reb B, listed as Mogroside V (212 ppm)", "value": 7, "unit": "%"}, {"measurement": "Sugar equivalent sweetness (SE) of Sweetener/Reb B combination", "setting": "[3]; 150 ppm Reb B, listed as Mogroside V (100 ppm)", "value": 5.5, "unit": "%"}, {"measurement": "Sugar equivalent sweetness (SE) of Sweetener/Reb B combination", "setting": "[3]; 150 ppm Reb B, listed as Mogroside V (212 ppm)", "value": 9, "unit": "%"}, {"measurement": "Sugar equivalent sweetness (SE) of Sweetener/Reb B combination", "setting": "[3]; 300 ppm Reb B, listed as Mogroside V (100 ppm)", "value": "8-8.5%"}, {"measurement": "Sugar equivalent sweetness (SE) of Sweetener/Reb B combination", "setting": "[3]; 300 ppm Reb B, listed as Mogroside V (212 ppm)", "value": "10-10.5%"}, {"measurement": "Calculated SF (sweetness factor)", "setting": "[1]", "value": 236}, {"measurement": "Usage Level, % (concentration corresponding to 5% sucrose equivalent sweetness)", "setting": "[1]", "value": 0.0212, "unit": "%"}]}]}
